In brackets after ≈: the same amount, converted by molar mass.

The test system of experiment [1] is Mycobacterium tuberculosis CRY-12; CRY-24. The method, then: (§1)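 Resazurin microtiter assay (REMA) MICs of anti-TB drugs against 19 EQA Mycobacterium tuberculosis strains (clinical or proficiency isolates plus H37Rv). Drugs were tested in doubling dilutions. Each value is the consensus of two measurements; where they disagreed the lower value was taken.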
The subject of experiment [2] is Mycobacterium tuberculosis CRY-5; CRY-10. Here is the method:
as §1

Experiment [3] deals with Mycobacterium tuberculosis CRY-2; CRY-25. Here is the method:
as §1

For experiment [4], the system named is Mycobacterium tuberculosis CRY-19. Here is the method:
as §1

In experiment [5] the test system is Mycobacterium tuberculosis CRY-14. The method, then:
as §1

The test system of experiment [6] is Mycobacterium tuberculosis CRY-23. The method, then:
as §1

In experiment [7] the test system is Mycobacterium tuberculosis CRY-28. The method, then: as §1
Experiment [8] has as its system Mycobacterium tuberculosis CRY-7; CRY-18. Here is the method: as §1
Experiment [9] has as its system Mycobacterium tuberculosis CRY-9; CRY-22. The method, then:
as §1

For experiment [10], the system named is Mycobacterium tuberculosis CRY-16. Here is the method: as §1
For experiment [11], the system named is Mycobacterium tuberculosis CRY-3; CRY-11. The method, then: as §1
The test system of experiment [12] is Mycobacterium tuberculosis CRY-8; CRY-13. Here is the method: as §1
Experiment [13] relates to Mycobacterium tuberculosis CRY-15; CRY-21. Here is the method: as §1
The test system of experiment [14] is Mycobacterium tuberculosis CRY-6; CRY-29. The method, then:
as §1

Experiment [15] has as its system Mycobacterium tuberculosis CRY-26. Here is the method: as §1
The subject of experiment [16] is Mycobacterium tuberculosis CRY-4; CRY-30. The method, then: as §1
For experiment [17], the system named is Mycobacterium tuberculosis CRY-27. The method, then:
as §1

Experiment [18] relates to Mycobacterium tuberculosis CRY-1; CRY-17. The method, then:
as §1

The test system of experiment [19] is Mycobacterium tuberculosis CRY-20. Here is the method: as §1

With `NCC[C@H](O)C(=O)N[C@@H]1C[C@H](N)[C@@H](O[C@H]2O[C@H](CN)[C@@H](O)[C@H](O)[C@H]2O)[C@H](O)[C@H]1O[C@H]1O[C@H](CO)[C@@H](O)[C@H](N)[C@H]1O` [Amikacin], the “MIC (REMA)” value in experiment [1] was above 16 µg/mL; in [2] it was 0.25 µg/mL (≈ 0.427 µM); in experiment [3] it was 0.25 µg/mL (≈ 0.427 µM); in [4], 0.25 µg/mL (≈ 0.427 µM); in experiment [5], above 16 µg/mL; in experiment [6] it was 0.125 µg/mL (≈ 0.213 µM). The entries for the “MIC (REMA)” value in experiment [7], in experiment [8] and in experiment [9] were 0.25 µg/mL (≈ 0.427 µM), above 16 µg/mL and 0.25 µg/mL (≈ 0.427 µM), respectively.

For `CC(C)/N=c1\cc2n(-c3ccc(Cl)cc3)c3ccccc3nc-2cc1Nc1ccc(Cl)cc1` [Clofazimine], the “MIC (REMA)” value amounted to 0.12 µg/mL (≈ 0.253 µM) in experiment [10]; 0.12 µg/mL (≈ 0.253 µM) in [11]; 0.06 µg/mL (≈ 0.127 µM) in experiment [12]; 0.06 µg/mL (≈ 0.127 µM) in experiment [2]; 1 µg/mL (≈ 2.11 µM) in [13]; 0.06 µg/mL (≈ 0.127 µM) in experiment [14]. Besides, the “MIC (REMA)” value in experiment [3] turned out to be 0.12 µg/mL (≈ 0.253 µM); in [5], 0.03 µg/mL (≈ 0.0634 µM); in [6], 0.008 µg/mL (≈ 0.0169 µM); in experiment [9], 1 µg/mL (≈ 2.11 µM); in [15] it was 0.06 µg/mL (≈ 0.127 µM); in [16], 0.03 µg/mL (≈ 0.0634 µM).

In the case of `CC[C@@H](CO)NCCN[C@@H](CC)CO` [Ethambutol], the “MIC (REMA)” value in [10] was found to be 4 µg/mL (≈ 19.6 µM); in [11], 1 µg/mL (≈ 4.89 µM); in experiment [17], 1 µg/mL (≈ 4.89 µM); in experiment [1], 1 µg/mL (≈ 4.89 µM); in [13], 1 µg/mL (≈ 4.89 µM); in [14], 1 µg/mL (≈ 4.89 µM). For the same compound, the “MIC (REMA)” value worked out at 1 µg/mL (≈ 4.89 µM) in experiment [3]; 0.5 µg/mL (≈ 2.45 µM) in [4]; 4 µg/mL (≈ 19.6 µM) in [5]; 1 µg/mL (≈ 4.89 µM) in [6]; 0.5 µg/mL (≈ 2.45 µM) in experiment [7]; 0.5 µg/mL (≈ 2.45 µM) in experiment [15]. For the same compound, the “MIC (REMA)” value in experiment [18] amounted to 4 µg/mL (≈ 19.6 µM).

Take `NNC(=O)c1ccncc1` [Isoniazid]: the “MIC (REMA)” value in experiment [10] is at most 0.015 µg/mL; in experiment [11], 0.06 µg/mL (≈ 0.438 µM); in experiment [12], above 8 µg/mL; in [2], above 8 µg/mL; in [14] it was above 8 µg/mL; in experiment [4], 0.125 µg/mL (≈ 0.911 µM). Also, the “MIC (REMA)” value in [5] was above 8 µg/mL; in experiment [6], above 8 µg/mL; in experiment [7] it was above 8 µg/mL; in experiment [8], above 8 µg/mL; in experiment [9] it was 0.03 µg/mL (≈ 0.219 µM); in experiment [15] it was 0.03 µg/mL (≈ 0.219 µM). In addition, the “MIC (REMA)” value in [18] is above 8 µg/mL.

`C[C@H]1COc2c(N3CCN(C)CC3)c(F)cc3c(=O)c(C(=O)O)cn1c23` [Levofloxacin]: the “MIC (REMA)” value stood at 0.25 µg/mL (≈ 0.692 µM) in experiment [10]; 0.25 µg/mL (≈ 0.692 µM) in [11]; 0.25 µg/mL (≈ 0.692 µM) in experiment [17]; 0.25 µg/mL (≈ 0.692 µM) in [1]; 0.125 µg/mL (≈ 0.346 µM) in [13]; 0.125 µg/mL (≈ 0.346 µM) in [19]. Moreover, the “MIC (REMA)” value in experiment [14] stood at 0.125 µg/mL (≈ 0.346 µM); in [4], 0.125 µg/mL (≈ 0.346 µM); in [5], 0.06 µg/mL (≈ 0.166 µM); in experiment [6], 0.06 µg/mL (≈ 0.166 µM); in [7], 0.06 µg/mL (≈ 0.166 µM); in experiment [9] it was 0.125 µg/mL (≈ 0.346 µM). Also, the “MIC (REMA)” value in experiment [15] amounted to 0.25 µg/mL (≈ 0.692 µM); in experiment [16], 0.25 µg/mL (≈ 0.692 µM); in experiment [18], 0.125 µg/mL (≈ 0.346 µM).

As for `CO[C@H]1/C=C/O[C@@]2(C)Oc3c(C)c(O)c4c(O)c(c(/C=N/N5CCN(C)CC5)c(O)c4c3C2=O)NC(=O)/C(C)=C\C=C\[C@H](C)[C@H](O)[C@@H](C)[C@@H](O)[C@@H](C)[C@H](OC(C)=O)[C@@H]1C` [Rifampicin], the “MIC (REMA)” value in experiment [17] is above 4 µg/mL; in [12], above 4 µg/mL; in [1] it was 0.015 µg/mL (≈ 0.0182 µM); in experiment [2], above 4 µg/mL; in [13], 0.03 µg/mL (≈ 0.0365 µM); in experiment [19], 0.06 µg/mL (≈ 0.0729 µM). The “MIC (REMA)” value in experiment [4] was 0.03 µg/mL (≈ 0.0365 µM); in [5], 2 µg/mL (≈ 2.43 µM); in experiment [7] it was above 4 µg/mL; in experiment [8] it was above 4 µg/mL; in [15], 0.015 µg/mL (≈ 0.0182 µM); in [18], above 4 µg/mL.

Values taken from the supplement of paper PMC6125532.
